Results as given in patent US20240270821A1, “GIP/GLP1/GCG TRI-RECEPTOR AGONISTS AND USES THEREOF” (priority 2023, published 2024).
pEC50: −log10 of the molar value. Starred links: 1 amine or outer side, 2 acyl side, 3 side chain; linkers in the order of their positions; H or OH if unused. Non-standard residues stand in square brackets, D forms with d. Groups on a side chain read outwards from the residue. *: point of attachment. C18 diacid = O=C(O)CCCCCCCCCCCCCCCCC(=O)*; Phe(4-CN) = N#Cc1ccc(C[C@H](N)C(=O)O)cc1; γGlu = O=C(O)[C@H](CCC(=O)[*:2])N[*:1]; αMe4Pal = C[C@](N)(Cc1ccncc1)C(=O)O; αMeY = C[C@](N)(Cc1ccc(O)cc1)C(=O)O; αMeF = C[C@](N)(Cc1ccccc1)C(=O)O; 4Pal = N[C@@H](Cc1ccncc1)C(=O)O; αMeL = CC(C)C[C@](C)(N)C(=O)O; αMeS = C[C@](N)(CO)C(=O)O; Orn = NCCC[C@H](N)C(=O)O; AEEA = NCCOCCOCC(=O)O; Aib = CC(C)(N)C(=O)O

Assays:
Format in all cases: cell-based
hGcgR = hGcgR (Homo sapiens, UniProt P47871); experiment: Functional cAMP activation in the presence of 0.1% casein (no HSA); conditions: in the presence of 0.1% casein (no HSA); geometric mean; read-out: Relative cAMP EC50, hGcgR;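 also: intracellular cAMP rise after 30 min at 37 °C, read by HTRF against a cAMP standard curve, scaled from buffer only (0%) to maximal control ligand response (100%)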
Chain of hGcgR (P47871 26-477): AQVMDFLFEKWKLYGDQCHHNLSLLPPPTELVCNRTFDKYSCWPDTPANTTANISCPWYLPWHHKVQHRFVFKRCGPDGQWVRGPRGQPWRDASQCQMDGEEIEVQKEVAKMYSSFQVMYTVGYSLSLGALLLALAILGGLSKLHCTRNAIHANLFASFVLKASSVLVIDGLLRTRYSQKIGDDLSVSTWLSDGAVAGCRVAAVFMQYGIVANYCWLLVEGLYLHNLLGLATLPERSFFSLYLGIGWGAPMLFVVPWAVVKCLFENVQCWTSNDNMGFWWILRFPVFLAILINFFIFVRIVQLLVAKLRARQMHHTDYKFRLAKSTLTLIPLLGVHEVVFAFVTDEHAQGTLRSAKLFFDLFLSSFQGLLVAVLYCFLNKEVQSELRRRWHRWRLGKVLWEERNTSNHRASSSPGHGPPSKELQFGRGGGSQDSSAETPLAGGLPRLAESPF

hGIPR [1] = molecular target: T1, hGIPR (Homo sapiens, UniProt P48546); experiment: Functional cAMP activity in the presence of 1% HSA; conditions: read-out: cAMP Rel EC50, hGIPR
T1 sequence (P48546 22-466): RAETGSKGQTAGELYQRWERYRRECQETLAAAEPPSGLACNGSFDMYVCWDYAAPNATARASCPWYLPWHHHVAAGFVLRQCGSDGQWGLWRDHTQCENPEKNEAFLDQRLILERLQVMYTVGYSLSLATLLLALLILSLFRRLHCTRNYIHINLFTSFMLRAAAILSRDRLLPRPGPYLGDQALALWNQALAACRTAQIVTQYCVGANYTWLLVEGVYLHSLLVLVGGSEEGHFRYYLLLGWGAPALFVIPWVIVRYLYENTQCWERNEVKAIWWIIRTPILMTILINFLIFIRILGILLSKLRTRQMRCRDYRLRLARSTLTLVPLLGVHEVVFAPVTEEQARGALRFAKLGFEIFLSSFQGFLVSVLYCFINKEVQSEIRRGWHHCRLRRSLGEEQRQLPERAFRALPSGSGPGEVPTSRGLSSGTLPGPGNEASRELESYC

human GcgR = human GcgR (Homo sapiens, UniProt P47871); experiment: Functional cAMP activity in the presence of 1% HSA; conditions: read-out: cAMP Rel EC50, hGcgR
Chain of human GcgR (P47871 26-477): as the sequence (P47871 26-477) above

hGLP-1R [2] = molecular target: T2, hGLP-1R (Homo sapiens, UniProt P43220); experiment: Functional cAMP activation in the presence of 0.1% casein (no HSA); conditions: in the presence of 0.1% casein (no HSA); geometric mean; read-out: Relative cAMP EC50, hGLP-1R;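 also: intracellular cAMP rise after 30 min at 37 °C read by HTRF, normalized between buffer only (0%) and maximal control ligand (100%), four-parameter variable-slope fit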
T2 sequence (P43220 24-463): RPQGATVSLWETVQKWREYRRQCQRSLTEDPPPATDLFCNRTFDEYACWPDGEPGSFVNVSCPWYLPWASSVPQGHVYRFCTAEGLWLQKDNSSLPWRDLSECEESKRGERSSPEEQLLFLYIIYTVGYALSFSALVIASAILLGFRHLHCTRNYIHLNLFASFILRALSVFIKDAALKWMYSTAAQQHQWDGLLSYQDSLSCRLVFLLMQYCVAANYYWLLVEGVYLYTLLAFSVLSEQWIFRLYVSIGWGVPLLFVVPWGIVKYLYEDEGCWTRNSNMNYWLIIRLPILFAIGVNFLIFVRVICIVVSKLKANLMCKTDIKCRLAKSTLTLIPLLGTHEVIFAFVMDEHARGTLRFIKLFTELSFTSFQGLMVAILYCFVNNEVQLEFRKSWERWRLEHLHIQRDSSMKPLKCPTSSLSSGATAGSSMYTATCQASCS

hGIPR [3] = molecular target: T1, hGIPR; experiment: as above; conditions: in the presence of 0.1% casein (no HSA); geometric mean; read-out: Relative cAMP EC50, hGIPR
hGLP-1R [4] = molecular target: T2, hGLP-1R; experiment: Functional cAMP activity in the presence of 1% HSA; conditions: read-out: cAMP Rel EC50, hGLP-1R
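For Relative cAMP EC50, hGIPR in this document: intracellular cAMP rise after 30 min at 37 °C read by HTRF against a standard curve, scaled between buffer alone (0%) and top control ligand concentration (100%), four-parameter fit.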

For “H-Y[Aib]QGTFTSD[4Pal][αMeS]I[αMeL]LD[Orn]K([dE-γGlu-C18 diacid])AQ[αMe4Pal]QFIQ[αMeY]LIE[Aib]GPSSGAPPPSGGGE-NH2 [Example 1136]”, the pEC50 (hGcgR) was 8.90, the pEC50 (hGIPR [1]) was 9.02 and the pEC50 (human GcgR) was 6.92. The pEC50 (hGLP-1R [2]) was 9.34, the pEC50 (hGIPR [3]) was 10.88 and the pEC50 (hGLP-1R [4]) was 7.41.
“H-Y[Aib]QGTFTSD[4Pal][αMeS]Q[αMeL]LD[Orn]K([dE-γGlu-C18 diacid])AQ[αMe4Pal]QFIE[αMeY]LIA[Aib]GPSSGAPPPSGGGE-NH2 [Example 1185]” showed a pEC50 (hGcgR) of 8.79, a pEC50 (hGIPR [1]) of 8.64 and a pEC50 (human GcgR) of 6.69. For the same substance, the pEC50 (hGLP-1R [2]) was 9.12, the pEC50 (hGIPR [3]) was 10.58 and the pEC50 (hGLP-1R [4]) was 7.18.
Work on “H-Y[Aib]QGTFTSD[4Pal][αMeS]Q[αMeL]LD[Orn]K([dE-γGlu-C18 diacid])AQ[αMe4Pal]QFIE[αMeY]LIA[Aib]GPSSGEPPPSGGGE-NH2 [Example 1182]” yielded a pEC50 (hGcgR) of 8.91, a pEC50 (hGIPR [1]) of 8.56 and a pEC50 (human GcgR) of 6.76. For the same substance, the pEC50 (hGLP-1R [2]) was 9.10, the pEC50 (hGIPR [3]) was 10.50 and the pEC50 (hGLP-1R [4]) was 7.09.
“H-Y[Aib]QGTFTSD[4Pal][αMeS]Q[αMeL]LD[Orn]K([dE-γGlu-C18 diacid])AQ[αMe4Pal]QFIE[αMeY]LIE[Aib]GPSSGAPPPSGGGE-NH2 [Example 1187]” was tested, and the pEC50 (hGcgR) was 8.74, the pEC50 (hGIPR [1]) was 8.15 and the pEC50 (human GcgR) was 6.43. For the same substance, the pEC50 (hGLP-1R [2]) was 8.97, the pEC50 (hGIPR [3]) was 10.19 and the pEC50 (hGLP-1R [4]) was 6.81.
With “H-Y[Aib]QGTFTSD[4Pal][αMeS]Q[αMeL]LD[Orn]K([dE-γGlu-C18 diacid])AQ[αMe4Pal]QFIQ[αMeY]LIAGGPSSGEPPPSGGGE-NH2 [Example 1133]” the pEC50 (hGcgR) was 8.53, the pEC50 (hGIPR [1]) was 8.37 and the pEC50 (human GcgR) was 6.67. For the same substance, the pEC50 (hGLP-1R [2]) was 9.11, the pEC50 (hGIPR [3]) was 10.14 and the pEC50 (hGLP-1R [4]) was 7.32.
For “H-Y[Aib]QGTFTSD[4Pal][αMeS]Q[αMeL]LD[Orn]K([dE-γGlu-C18 diacid])AQ[αMe4Pal]QFIQ[αMeY]LIE[Aib]GPSSGAPPPSGGGE-NH2 [Example 1186]”, the pEC50 (hGcgR) was 8.84, the pEC50 (hGIPR [1]) was 8.50 and the pEC50 (human GcgR) was 6.79. For the same substance, the pEC50 (hGLP-1R [2]) was 9.23, the pEC50 (hGIPR [3]) was 10.39 and the pEC50 (hGLP-1R [4]) was 7.28.
In the case of “H-Y[Aib]QGTFTSD[4Pal][αMeS]Q[αMeL]LD[Orn]K([dE-γGlu-C18 diacid])AQ[αMe4Pal]QFIQ[αMeY]LIE[Aib]GPSSGEPPPSGGGE-NH2 [Example 1183]”, the pEC50 (hGcgR) was 8.86, the pEC50 (hGIPR [1]) was 8.50 and the pEC50 (human GcgR) was 6.90. The pEC50 (hGLP-1R [2]) was 9.11, the pEC50 (hGIPR [3]) was 10.32 and the pEC50 (hGLP-1R [4]) was 7.27.
“H-Y[Aib]QGTFTSD[4Pal][αMeS]Q[αMeL]LD[Orn]K([dE-γGlu-C18 diacid])AQ[αMe4Pal]QFIQ[αMeY]LLE[Aib]GPSSGAPPPSGGGE-NH2 [Example 1138]” was tested, and the pEC50 (hGcgR) was 9.00, the pEC50 (hGIPR [1]) was 8.47 and the pEC50 (human GcgR) was 7.14. The pEC50 (hGLP-1R [2]) was 8.71, the pEC50 (hGIPR [3]) was 10.31 and the pEC50 (hGLP-1R [4]) was 6.79.
For “H-Y[Aib]QGTFTSD[Phe(4-CN)]S[Orn][αMeL]LDKK([AEEA-AEEA-γGlu-C18 diacid])AQ[Aib]AFIEYLLE[Aib]GPSSGAPPPSGS-NH2 [Example 178]”, the pEC50 (hGcgR) was 8.14, the pEC50 (hGIPR [1]) was 7.33 and the pEC50 (human GcgR) was 6.09. For the same substance, the pEC50 (hGLP-1R [2]) was 8.40, the pEC50 (hGIPR [3]) was 9.47 and the pEC50 (hGLP-1R [4]) was 6.40.
For “H-Y[Aib]QGTFTSD[Phe(4-CN)]S[Orn][αMeL]LDKK([AEEA-γGlu-C18 diacid])AQ[Aib]AFIEYLLE[Aib]GHSSGAPPPSGS-NH2 [Example 190]”, the pEC50 (hGcgR) was 8.53, the pEC50 (hGIPR [1]) was 7.23 and the pEC50 (human GcgR) was 6.48. For the same substance, the pEC50 (hGLP-1R [2]) was 8.85, the pEC50 (hGIPR [3]) was 9.51 and the pEC50 (hGLP-1R [4]) was 6.76.
For “H-Y[Aib]QGTFTSD[Phe(4-CN)]S[Orn][αMeL]LDKK([AEEA-γGlu-C18 diacid])AQ[Aib]AFIEYLLE[Aib]GPSSGAPPPSGS-NH2 [Example 191]”, the pEC50 (hGcgR) was 8.68, the pEC50 (hGIPR [1]) was 7.32 and the pEC50 (human GcgR) was 6.46. The pEC50 (hGLP-1R [2]) was 8.61, the pEC50 (hGIPR [3]) was 9.37 and the pEC50 (hGLP-1R [4]) was 6.64.
For “H-Y[Aib]QGT[αMeF]TSD[4Pal][αMeS]I[αMeL]LD[Orn]K([AEEA-γGlu-C18 diacid])AQ[αMe4Pal]EFI[dE][αMeY]LIEGGPSSGAPPPSGE-NH2 [Example 1164]”, the pEC50 (hGcgR) was 8.55, the pEC50 (hGIPR [1]) was 8.93 and the pEC50 (human GcgR) was 6.44. It also gave a pEC50 (hGLP-1R [2]) of 9.31, a pEC50 (hGIPR [3]) of 10.98 and a pEC50 (hGLP-1R [4]) of 7.20.
“H-Y[Aib]QGT[αMeF]TSD[4Pal][αMeS]I[αMeL]LD[Orn]K([AEEA-γGlu-C18 diacid])AQ[αMe4Pal]EFI[dE][αMeY]LIEGGPSSGAPPPSGSE-NH2 [Example 1166]” gave a pEC50 (hGcgR) of 8.53, a pEC50 (hGIPR [1]) of 8.96 and a pEC50 (human GcgR) of 6.37. For the same substance, the pEC50 (hGLP-1R [2]) was 9.32, the pEC50 (hGIPR [3]) was 11.00 and the pEC50 (hGLP-1R [4]) was 7.18.
